Where a SMILES comes first, the peptide text is derived from it. The star is where a group is joined. Cbz = O=C(OCc1ccccc1)*; CH2F = FC*
System: primary neurons
Experiment: Death of primary neurons with purified cis P-tau
Format: cell-based

COC(=O)C[C@H](NC(=O)[C@H](C)NC(=O)[C@@H](NC(=O)OCc1ccccc1)C(C)C)C(=O)CF [Z-VAD-FMK] (Cbz-Val-Ala-Asp(OMe)-CH2F)
death in primary neurons induced by purified cis P-tau: blocked
